Source: ChEMBL document CHEMBL1157707, “Lead optimization of N-3-substituted 7-morpholinotriazolopyrimidines as dual phosphoinositide 3-kinase/mammalian target of rapamycin inhibitors: discovery of PKI-402” (J Med Chem, 2010)
Values after ≈ are worked out from the molar mass of the structure shown. Active and inactive are the calls of the source. The calls are words filed in the database; no cut-off is given here.

Assays:
MDA-MB-361 [1] = test: cells; conditions: Homo sapiens, MDA-MB-361, 72 h
[2] = molecular target: Serine/threonine-protein kinase mTOR (Homo sapiens, UniProt P42345); test: Inhibition of mTOR by DELFIA
cells = conditions: Homo sapiens, MDA-MB-361, 4 h
in vitro = conditions: rat
[3] = Metabolic stability in mouse liver microsomes assessed as half life; format: ADME, Microsome
PC-3 = test: cells; conditions: Homo sapiens, PC-3, 72 h
[4] = Metabolic stability in human liver microsomes assessed as half life; format: ADME, Microsome
[5] = molecular target: Phosphatidylinositol 4,5-bisphosphate 3-kinase catalytic subunit alpha isoform (Homo sapiens, UniProt P42336)
[6] = molecular target: Phosphatidylinositol 4,5-bisphosphate 3-kinase catalytic subunit gamma isoform (Homo sapiens, UniProt P48736); test: Inhibition of human PI3Kgamma by fluorescence polarization format assay
[7] = Solubility at pH 7.4; format: physicochemical; conditions: buffer
Mus musculus [8] = test: Antitumor activity against human MDA-MB-361 cells implanted in mouse assessed as suppression of P70S6K phosphorylation at 50 mg/kg, iv; format: functional, organism-based; parameters: dose 50 mg/kg
Mus musculus [9] = test: Plasma concentration in human MDA-MB-361 cells implanted mouse at 50 mg/kg, iv; format: ADME, organism-based; parameters: dose 50 mg/kg, route intravenous; conditions: in vivo
Mus musculus [10] = test: Antitumor activity against human MDA-MB-361 cells implanted in mouse assessed as suppression of S6 phosphorylation at 50 mg/kg, iv; format: functional, organism-based; parameters: dose 50 mg/kg
[11] = Solubility at pH 3; format: physicochemical; conditions: buffer
[12] = Drug level in human MDA-MB-361 cells implanted mouse tumor at 50 mg/kg, iv; format: ADME, organism-based, Neoplasm; parameters: dose 50 mg/kg, route intravenous; conditions: in vivo
Mus musculus [13] = test: Antitumor activity against human MDA-MB-361 cells implanted in mouse assessed as suppression of Akt S473 phosphorylation at 50 mg/kg, iv; format: functional, organism-based; parameters: dose 50 mg/kg
Mus musculus [14] = test: Antitumor activity against human MDA-MB-361 cells implanted in mouse assessed as suppression of Akt T308 phosphorylation at 50 mg/kg, iv; format: functional, organism-based; parameters: dose 50 mg/kg
Mus musculus [15] = test: Antitumor activity against human MDA-MB-361 cells implanted in mouse assessed as […] of cleavage of PARP at 50 mg/kg, iv after 8 hrs; format: functional, organism-based; parameters: dose 50 mg/kg
[16] = Plasma concentration in human MDA-MB-361 cells implanted mouse at 50 mg/kg, iv after 8 hrs; format: ADME, organism-based; parameters: dose 50 mg/kg, route intravenous
MDA-MB-361 [17] = test: Antitumor activity against human MDA-MB-361 cells implanted in mouse assessed as inhibition of regrowth at until day 70 at 100 mg/kg, iv once daily for 5 days; format: functional, organism-based; parameters: dose 100 mg/kg
[18] = molecular target: Phosphatidylinositol 4,5-bisphosphate 3-kinase catalytic subunit beta isoform (Homo sapiens, UniProt P42338); test: Inhibition of PI3Kbeta
Mus musculus [19] = species on record: Mus musculus; test: Toxicity in mouse assessed as weight loss; format: organism-based; conditions: in vivo
Mus musculus [20] = test: Antitumor activity against human MDA-MB-361 cells implanted in mouse assessed as suppression of S6 phosphorylation at 100 mg/kg, iv after 8 hrs; format: functional, organism-based; parameters: dose 100 mg/kg
MDA-MB-361 [21] = test: Antitumor activity against human MDA-MB-361 cells implanted in mouse assessed as inhibition of regrowth at until day 16 and 20 at 25 mg/kg, iv once daily for 5 days; format: functional, organism-based; parameters: dose 25 mg/kg
Mus musculus [22] = test: Antitumor activity against human MDA-MB-361 cells implanted in mouse assessed as suppression of Akt T308 phosphorylation at 100 mg/kg, iv after 8 hrs; format: functional, organism-based; parameters: dose 100 mg/kg
MDA-MB-361 [23] = test: Antitumor activity against human MDA-MB-361 cells implanted in mouse assessed as inhibition of regrowth at until day 16 and 20 at 50 mg/kg, iv once daily for 5 days; format: functional, organism-based; parameters: dose 50 mg/kg
Mus musculus [24] = test: Antitumor activity against human MDA-MB-361 cells implanted in mouse assessed as suppression of Akt S473 phosphorylation at 50 mg/kg, iv after 8 hrs; format: functional, organism-based; parameters: dose 50 mg/kg
Mus musculus [25] = test: Antitumor activity against human MDA-MB-361 cells implanted in mouse assessed as suppression of Akt S473 phosphorylation at 100 mg/kg, iv after 8 hrs; format: functional, organism-based; parameters: dose 100 mg/kg
[26] = Drug level in human MDA-MB-361 cells implanted mouse tumor at 50 mg/kg, iv after 8 hrs; format: ADME, organism-based, Neoplasm; parameters: dose 50 mg/kg, route intravenous; conditions: read-out: Drug uptake
Mus musculus [27] = test: Antitumor activity against human MDA-MB-361 cells implanted in mouse assessed as suppression of S6 phosphorylation at 50 mg/kg, iv after 8 hrs; format: functional, organism-based; parameters: dose 50 mg/kg
Mus musculus [28] = test: Antitumor activity against human MDA-MB-361 cells implanted in mouse assessed as suppression of P70S6K phosphorylation at 50 mg/kg, iv after 8 hrs; format: functional, organism-based; parameters: dose 50 mg/kg
Mus musculus [29] = test: Antitumor activity against human MDA-MB-361 cells implanted in mouse assessed as […] of cleavage of PARP at 100 mg/kg, iv after 8 hrs; format: functional, organism-based; parameters: dose 100 mg/kg
Mus musculus [30] = test: Antitumor activity against human MDA-MB-361 cells implanted in mouse assessed as suppression of P70S6K phosphorylation at 100 mg/kg, iv after 8 hrs; format: functional, organism-based; parameters: dose 100 mg/kg
Mus musculus [31] = test: Antitumor activity against human MDA-MB-361 cells implanted in mouse assessed as suppression of Akt T308 phosphorylation at 50 mg/kg, iv after 8 hrs; format: functional, organism-based; parameters: dose 50 mg/kg

Chain of Phosphatidylinositol 4,5-bisphosphate 3-kinase catalytic subunit alpha isoform (P42336 whole entry, canonical isoform): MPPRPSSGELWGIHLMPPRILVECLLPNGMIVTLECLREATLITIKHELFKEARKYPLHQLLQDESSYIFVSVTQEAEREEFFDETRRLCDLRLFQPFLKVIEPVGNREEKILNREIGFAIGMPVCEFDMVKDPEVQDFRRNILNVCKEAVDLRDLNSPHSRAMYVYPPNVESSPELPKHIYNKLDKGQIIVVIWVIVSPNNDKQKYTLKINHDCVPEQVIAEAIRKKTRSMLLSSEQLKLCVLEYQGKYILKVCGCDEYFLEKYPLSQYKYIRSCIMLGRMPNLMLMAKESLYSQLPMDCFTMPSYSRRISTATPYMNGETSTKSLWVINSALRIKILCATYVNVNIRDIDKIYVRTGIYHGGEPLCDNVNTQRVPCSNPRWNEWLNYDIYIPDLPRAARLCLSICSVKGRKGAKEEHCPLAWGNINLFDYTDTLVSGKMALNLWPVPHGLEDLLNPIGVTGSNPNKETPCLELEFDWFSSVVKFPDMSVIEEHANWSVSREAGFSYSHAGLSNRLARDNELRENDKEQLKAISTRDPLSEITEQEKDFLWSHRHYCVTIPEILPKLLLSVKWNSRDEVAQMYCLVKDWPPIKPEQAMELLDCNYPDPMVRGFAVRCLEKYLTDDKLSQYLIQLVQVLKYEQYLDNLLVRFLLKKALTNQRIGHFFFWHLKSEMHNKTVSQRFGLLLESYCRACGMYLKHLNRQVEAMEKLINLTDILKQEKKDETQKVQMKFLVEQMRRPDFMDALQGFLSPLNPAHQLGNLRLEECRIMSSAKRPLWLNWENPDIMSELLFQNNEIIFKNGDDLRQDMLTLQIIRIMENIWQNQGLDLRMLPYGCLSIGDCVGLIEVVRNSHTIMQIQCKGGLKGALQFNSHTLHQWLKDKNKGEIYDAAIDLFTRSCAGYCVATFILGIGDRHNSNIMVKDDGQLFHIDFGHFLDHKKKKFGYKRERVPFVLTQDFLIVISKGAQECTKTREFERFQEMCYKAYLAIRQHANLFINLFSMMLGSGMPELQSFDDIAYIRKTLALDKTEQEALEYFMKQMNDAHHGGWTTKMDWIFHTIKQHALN
Chain of Phosphatidylinositol 4,5-bisphosphate 3-kinase catalytic subunit gamma isoform (P48736 whole entry, canonical isoform): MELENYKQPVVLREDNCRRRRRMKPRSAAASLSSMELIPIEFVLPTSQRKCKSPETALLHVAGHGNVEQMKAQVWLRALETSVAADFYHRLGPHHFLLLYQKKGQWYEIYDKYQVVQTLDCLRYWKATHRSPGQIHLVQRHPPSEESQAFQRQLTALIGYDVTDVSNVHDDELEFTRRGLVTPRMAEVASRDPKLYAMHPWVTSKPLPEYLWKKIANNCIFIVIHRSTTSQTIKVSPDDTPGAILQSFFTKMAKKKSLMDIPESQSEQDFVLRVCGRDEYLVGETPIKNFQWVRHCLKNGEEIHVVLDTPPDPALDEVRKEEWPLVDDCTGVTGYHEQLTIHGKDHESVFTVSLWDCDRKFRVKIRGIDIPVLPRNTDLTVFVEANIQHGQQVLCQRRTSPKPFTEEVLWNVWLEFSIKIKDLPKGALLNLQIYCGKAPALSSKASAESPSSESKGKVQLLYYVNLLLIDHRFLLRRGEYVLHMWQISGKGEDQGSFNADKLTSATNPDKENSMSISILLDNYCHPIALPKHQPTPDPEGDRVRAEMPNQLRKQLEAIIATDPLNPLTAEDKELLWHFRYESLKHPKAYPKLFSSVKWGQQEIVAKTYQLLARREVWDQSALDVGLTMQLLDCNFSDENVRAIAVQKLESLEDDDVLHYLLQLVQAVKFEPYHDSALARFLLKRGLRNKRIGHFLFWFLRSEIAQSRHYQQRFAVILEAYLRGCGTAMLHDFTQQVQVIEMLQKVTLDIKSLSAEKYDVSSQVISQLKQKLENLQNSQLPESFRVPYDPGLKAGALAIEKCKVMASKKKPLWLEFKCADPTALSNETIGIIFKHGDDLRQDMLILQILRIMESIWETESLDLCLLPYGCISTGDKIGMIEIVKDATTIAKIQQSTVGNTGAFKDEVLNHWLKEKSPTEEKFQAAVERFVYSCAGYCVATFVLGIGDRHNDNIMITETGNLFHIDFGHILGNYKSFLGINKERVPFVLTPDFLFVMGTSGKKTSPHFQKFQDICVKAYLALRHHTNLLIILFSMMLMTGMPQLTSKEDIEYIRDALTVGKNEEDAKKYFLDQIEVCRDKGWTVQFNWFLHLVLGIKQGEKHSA
Chain of Phosphatidylinositol 4,5-bisphosphate 3-kinase catalytic subunit beta isoform (P42338 whole entry, canonical isoform): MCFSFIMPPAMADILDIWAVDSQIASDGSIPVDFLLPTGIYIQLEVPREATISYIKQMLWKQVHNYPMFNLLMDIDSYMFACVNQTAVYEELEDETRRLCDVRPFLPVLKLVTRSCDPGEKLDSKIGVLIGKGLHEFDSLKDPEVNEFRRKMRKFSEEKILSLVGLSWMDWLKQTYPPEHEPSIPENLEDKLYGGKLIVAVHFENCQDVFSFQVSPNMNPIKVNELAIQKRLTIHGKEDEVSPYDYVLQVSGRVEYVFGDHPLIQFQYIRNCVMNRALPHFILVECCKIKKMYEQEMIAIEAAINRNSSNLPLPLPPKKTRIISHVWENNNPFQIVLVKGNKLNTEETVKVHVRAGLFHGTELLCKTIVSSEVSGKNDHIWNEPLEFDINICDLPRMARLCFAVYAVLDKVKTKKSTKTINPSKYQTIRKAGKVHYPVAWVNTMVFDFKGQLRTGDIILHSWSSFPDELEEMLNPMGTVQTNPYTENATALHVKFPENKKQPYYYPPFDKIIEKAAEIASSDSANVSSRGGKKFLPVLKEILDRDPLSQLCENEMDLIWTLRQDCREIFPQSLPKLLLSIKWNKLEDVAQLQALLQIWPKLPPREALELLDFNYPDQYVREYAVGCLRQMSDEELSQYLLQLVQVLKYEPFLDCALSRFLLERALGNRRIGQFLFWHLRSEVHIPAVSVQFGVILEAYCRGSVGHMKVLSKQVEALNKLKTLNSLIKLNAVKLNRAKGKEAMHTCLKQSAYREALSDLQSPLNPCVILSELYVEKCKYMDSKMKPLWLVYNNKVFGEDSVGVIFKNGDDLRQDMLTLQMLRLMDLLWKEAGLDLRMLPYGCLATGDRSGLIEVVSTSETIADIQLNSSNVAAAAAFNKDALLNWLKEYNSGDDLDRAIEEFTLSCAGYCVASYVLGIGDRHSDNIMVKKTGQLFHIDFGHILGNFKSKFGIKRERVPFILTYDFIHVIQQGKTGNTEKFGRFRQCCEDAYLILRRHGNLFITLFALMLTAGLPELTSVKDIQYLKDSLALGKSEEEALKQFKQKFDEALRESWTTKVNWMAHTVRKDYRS

Compound | IC50 (MDA-MB-361 [1]) | IC50 [2] | IC50 (cells) | half-life (in vitro; liver microsomes) | half-life [3] | IC50 (PC-3) | half-life [4] | IC50 [5] | solubility [7] | further results
CCCCNC(=O)c1ccc(NC(=O)Nc2ccc(-c3nc(N4CCOCC4)c4nnn(CC)c4n3)cc2)cc1 | 68 nM | 2.7 nM | 47 nM | 21 min | 27 min | 96 nM | > 30 min | – | – | –
O=C(Nc1ccc(-c2nc(N3CCOCC3)c3nnn(C4CC4)c3n2)cc1)Nc1cccnc1 | 67 nM | 0.57 nM | – | 24 min | – | 90 nM | – | 10.5 nM | 1 µg/mL (≈ 2.19 µM) | IC50 [6]: 48.5 nM
CCn1nnc2c(N3CCOCC3)nc(-c3ccc(NC(=O)Nc4ccc(C(=O)N(C)C)cc4)cc3)nc21 | 16 nM | 0.75 nM | 8 nM | 14 min | – | 17 nM | > 30 min | 1.4 nM | 1 µg/mL (≈ 1.94 µM) | –
Cn1nnc2c(N3CCOCC3)nc(-c3ccc(NC(=O)Nc4cccs4)cc3)nc21 | 184 nM | 3.7 nM | – | 9 min | – | 366 nM | – | – | 2 µg/mL (≈ 4.58 µM) | –
CCn1nnc2c(N3CCOCC3)nc(-c3ccc(NC(=O)Nc4ccc(C(=O)NCCN(C)C)cc4)cc3)nc21 | 13 nM | 0.5 nM | 16 nM | – | 28 min | 52 nM | > 30 min | – | > 100 µg/mL | Activity (Mus musculus [8]): Active; Cp (Mus musculus [9]): 1229 ng/mL; Activity (Mus musculus [10]): Active; solubility [11]: > 100 µg/mL; IC50 [6]: 12 nM; half-life (in vitro; microsomes): 29 min; Drug uptake [12]: 2130 ng/mL; Activity (Mus musculus [13]): Active; Activity (Mus musculus [14]): Active
CCn1nnc2c(N3CCOCC3)nc(-c3ccc(NC(=O)Nc4cccs4)cc3)nc21 | 81 nM | 3 nM | – | 10 min | – | 133 nM | – | – | 1 µg/mL (≈ 2.22 µM) | –
CC(C)n1nnc2c(N3CCOCC3)nc(-c3ccc(NC(=O)Nc4ccc(N5CCOCC5)cc4)cc3)nc21 | 47 nM | 0.35 nM | – | 25 min | – | 110 nM | – | – | 1 µg/mL (≈ 1.84 µM) | –
CCn1nnc2c(N3CCOCC3)nc(-c3ccc(NC(=O)Nc4ccc(C(=O)NCCCN(C)C)cc4)cc3)nc21 | 41 nM | 2.2 nM | 44 nM | 26 min | 26 min | 116 nM | 30 min | 2.4 nM | 100 µg/mL (≈ 175 µM) | solubility [11]: 100 µg/mL (≈ 175 µM)
CCn1nnc2c(N3CCOCC3)nc(-c3ccc(NC(=O)Nc4ccncc4)cc3)nc21 | 35 nM | 0.63 nM | – | 27 min | – | 49 nM | – | 5 nM | 18 µg/mL (≈ 40.4 µM) | –
CCNC(=O)c1ccc(NC(=O)Nc2ccc(-c3nc(N4CCOCC4)c4nnn(CC)c4n3)cc2)cc1 | 29 nM | 0.56 nM | 27 nM | – | 29 min | 33 nM | > 30 min | 3 nM | 1 µg/mL (≈ 1.94 µM) | IC50 [6]: 17.2 nM; half-life (in vitro; microsomes): 16 min
O=C(Nc1ccc(-c2nc(N3CCOCC3)c3nnn(C4CC4)c3n2)cc1)Nc1cccs1 | 73 nM | 3.05 nM | – | 15 min | – | 149 nM | – | – | – | –
CCn1nnc2c(N3CCOCC3)nc(-c3ccc(NC(=O)Nc4ccc(C(N)=O)cc4)cc3)nc21 | 28 nM | 0.39 nM | – | – | – | 65 nM | – | 2.4 nM | 6 µg/mL (≈ 12.3 µM) | IC50 [6]: 12.2 nM; half-life (in vitro; microsomes): 21 min
CCn1nnc2c(N3CCOCC3)nc(-c3ccc(NC(=O)Nc4ccc(C(=O)N5CCN(C)CC5)cc4)cc3)nc21 | – | 1.7 nM | 5 nM | 15 min | > 30 min | – | > 30 min | – | – | Activity (Mus musculus [15]): Active; concentration at 8 h [16]: 525 ng/mL; Activity (MDA-MB-361 [17]): Active; IC50 [18]: 7 nM; Activity (Mus musculus [19]): Non-toxic; Activity (Mus musculus [20]): Active; solubility [11]: 100 µg/mL (≈ 175 µM); Activity (MDA-MB-361 [21]): inactive; Activity (Mus musculus [22]): Active; Activity (MDA-MB-361 [23]): inactive; Activity (Mus musculus [24]): Active; Activity (Mus musculus [25]): Active; concentration at 8 h [26]: 2220 ng/mL; Activity (Mus musculus [27]): Active; Activity (Mus musculus [28]): Active; Activity (Mus musculus [29]): Active; Activity (Mus musculus [30]): Active; Activity (Mus musculus [31]): Active
CC(C)n1nnc2c(N3CCOCC3)nc(-c3ccc(NC(=O)Nc4ccc(N(C)C)cc4)cc3)nc21 | 84 nM | 1.6 nM | – | 7 min | – | 171 nM | – | – | – | –
